According to patent publication US8889667B2 (Agios Pharmaceuticals, Inc, priority 2010, dated 2014):

biological target: PKM2 (Homo sapiens, UniProt P14618); assay: PKM2 Assay (activation, LDH-coupled, absorbance at 340 nm); type: biochemical; conditions: Table 4
Method: • PKM2 stock enzyme solution was diluted in Reaction Buffer • 2 μL of compound was added into each well first, and then 180 μL of the Reaction Mix was added. • Reaction mixture with compound (without ADP) was incubated for 30 minutes at 4° C. • Plates were re-equilibrated to room temperature prior to adding 20 μL ADP to initiate the reaction. • Reaction progress was measured as changes in absorbance at 340 nm wavelength at room temperature (25° C.) Reaction Mix: PKM2 (50 ng/well), ADP (0.7 mM), PEP (0.15 mM), NADH (180 μM), LDH (2 units) in Reaction Buffer Reaction Buffer: 100 mM KCl, 50 mM Tris pH 7.5, 5 mM MgCl2, 1 mM DTT, 0.03% BSA.
Representative compounds of the invention were tested for their ability to activate PKM2 using the above assay. For simplicity, the activation activity of these compounds is represented as an AC50 in Tables 4 and 5 and throughout the application. […] “B” refers to an activator of PKM2 with an EC50 between 100 nM and 500 nM. “C” refers to an activator of PKM2 with an EC50 between 500 nM and 1000 nM. “D” refers to an activator of PKM2 with an EC50 between 1 μM and 20 μM. “E” refers a compound whose activation of PKM2 was not measurable. “N/C” refers to AC50 data not available.

Sequence of PKM2 (P14618 whole entry): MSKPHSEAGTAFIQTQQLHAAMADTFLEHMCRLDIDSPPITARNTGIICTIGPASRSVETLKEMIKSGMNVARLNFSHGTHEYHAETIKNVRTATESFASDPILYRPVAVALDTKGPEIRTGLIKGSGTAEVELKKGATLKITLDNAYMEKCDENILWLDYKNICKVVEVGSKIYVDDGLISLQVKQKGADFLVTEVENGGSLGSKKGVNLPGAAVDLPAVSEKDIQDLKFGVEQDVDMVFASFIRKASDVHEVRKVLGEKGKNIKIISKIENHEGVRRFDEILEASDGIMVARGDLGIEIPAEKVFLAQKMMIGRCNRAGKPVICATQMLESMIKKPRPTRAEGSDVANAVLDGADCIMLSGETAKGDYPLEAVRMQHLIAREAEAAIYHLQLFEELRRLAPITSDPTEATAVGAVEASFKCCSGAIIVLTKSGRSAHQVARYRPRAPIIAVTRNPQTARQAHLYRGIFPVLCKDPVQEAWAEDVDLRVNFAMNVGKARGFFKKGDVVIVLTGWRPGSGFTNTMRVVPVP

| SMILES | AC50 |
| --- | --- |
| CC1CN(C(=O)c2ccccn2)CC(C)N1C(=O)c1ccc(NS(=O)(=O)c2cccc3cccnc23)cc1 (racemic) [Compound 116] | 1000 to 20000 nM |
| C[C@H]1CN(C[C@H]2CCCO2)CCN1C(=O)c1ccc(NS(=O)(=O)c2cccc3cccnc23)cc1 (stereo in doubt) [Compound 211, N-(4-((2S)-2R-methyl-4-((tetrahydrofuran-2-yl)methyl)piperazine-1-carbonyl)phenyl)quinoline-8-sulfonamide] | < 100 nM |
| C[C@H]1CN(C(=O)c2ccc(NS(=O)(=O)c3cccc4cccnc34)cc2)CCN1C(=O)c1ccccn1 [Compound 100] | 100 to 500 nM |
| C[C@H]1CN(C(=O)c2ccccn2)CCN1C(=O)c1ccc(NS(=O)(=O)c2cccc3cccnc23)cc1 [Compound 101] | 100 to 500 nM |
| C[C@@H]1CN(C(=O)c2ccc(NS(=O)(=O)c3cccc4cccnc34)cc2)CCN1C(=O)c1ccccn1 [Compound 102] | 100 to 500 nM |
| C[C@@H]1CN(C(=O)c2ccccn2)CCN1C(=O)c1ccc(NS(=O)(=O)c2cccc3cccnc23)cc1 [Compound 103] | 100 to 500 nM |
| CC(C)COC(=O)N1[C@H](C)CN(C(=O)c2ccc(NS(=O)(=O)c3cccc4cccnc34)cc2)C[C@@H]1C [Compound 105, (2S,6R)-isobutyl-2,6-dimethyl-4-(4-(quinoline-8-sulfonamido)benzoyl)piperazine-1-carboxylate] | 100 to 500 nM |
| CC(C)OC(=O)N1[C@H](C)CN(C(=O)c2ccc(NS(=O)(=O)c3cccc4cccnc34)cc2)C[C@@H]1C [Compound 106, (2S,6R)-isopropyl 2,6-dimethyl-4-(4-(quinoline-8-sulfonamido)benzoyl)piperazine-1-carboxylate] | 100 to 500 nM |
| CCOC(=O)N1CCN(C(=O)c2ccc(NS(=O)(=O)c3cccc4cccnc34)cc2)[C@@H](C)C1 [Compound 107, (S)-Ethyl 3-methyl-4-(4-(quinoline-8-sulfonamido)benzoyl)piperazine-1-carboxylate] | 500 to 1000 nM |
| CC(C)OC(=O)N1CCN(C(=O)c2ccc(NS(=O)(=O)c3cccc4cccnc34)cc2)[C@@H](C)C1 [Compound 108, (S)-isopropyl 3-methyl-4-(4-(quinoline-8-sulfonamido)benzoyl)piperazine-1-carboxylate] | < 100 nM |
| CCOC(=O)N1CCN(C(=O)c2ccc(NS(=O)(=O)c3cccc4cccnc34)cc2)[C@H](C)C1 [Compound 109, (R)-Ethyl 3-methyl-4-(4-(quinoline-8-sulfonamido)benzoyl)piperazine-1-carboxylate] | 100 to 500 nM |
| CC(C)OC(=O)N1CCN(C(=O)c2ccc(NS(=O)(=O)c3cccc4cccnc34)cc2)[C@H](C)C1 [Compound 110, (R)-Isopropyl 3-methyl-4-(4-(quinoline-8-sulfonamido)benzoyl)piperazine-1-carboxylate] | < 100 nM |
| C[C@H]1CN(C(=O)OCC2CC2)CCN1C(=O)c1ccc(NS(=O)(=O)c2cccc3cccnc23)cc1 [Compound 111, (S)-Cyclopropylmethyl3-methyl-4-(4-(quinoline-8-sulfonamido)benzoyl)piperazine-1-carboxylate] | < 100 nM |
| C[C@@H]1CN(C(=O)OCC2CC2)CCN1C(=O)c1ccc(NS(=O)(=O)c2cccc3cccnc23)cc1 [Compound 112, (R)-Cyclopropylmethyl 3-methyl-4-(4-(quinoline-8-sulfonamido)benzoyl)piperazine-1-carboxylate] | < 100 nM |
| C[C@@H]1CN(CC2CC2)CCN1C(=O)c1ccc(NS(=O)(=O)c2cccc3cccnc23)cc1 [Compound 113, (R)—N-(4-(4-(cyclopropylmethyl)-2-methylpiperazine-1-carbonyl)phenyl)quinoline-8-sulfonamide] | < 100 nM |
| C[C@@H]1CN(CC2CCCC2)CCN1C(=O)c1ccc(NS(=O)(=O)c2cccc3cccnc23)cc1 [Compound 114, (R)—N-(4-(4-(cyclopentylmethyl)-2-methylpiperazine-1-carbonyl)phenyl)quinoline-8-sulfonamide] | < 100 nM |
| C[C@@H]1CN(CC2CCOC2)CCN1C(=O)c1ccc(NS(=O)(=O)c2cccc3cccnc23)cc1 (stereo partly drawn) [Compound 115, N-(4-((2R)-2-methyl-4-((tetrahydrofuran-3-yl)methyl)piperazine-1-carbonyl)phenyl)quinoline-8-sulfonamide] | 100 to 500 nM |

| SMILES | AC50 |
| --- | --- |
| CCOC(=O)N1[C@H](C)CN(C(=O)c2ccc(NS(=O)(=O)c3cccc4cccnc34)cc2)C[C@@H]1C [Compound 117, (2S,6R)-ethyl 2,6-dimethyl-4-(4-(quinoline-8-sulfonamido)benzoyl)piperazine-1-carboxylate] | > 20000 nM |
| C[C@@H]1CN(Cc2ccc(F)c(F)c2F)CCN1C(=O)c1ccc(NS(=O)(=O)c2cccc3cccnc23)cc1 [Compound 118, (R)—N-(4-(2-methyl-4-(2,3,4-trifluorobenzyl)piperazine-1-carbonyl)phenyl)quinoline-8-sulfonamide] | < 100 nM |
| C[C@@H]1CN(Cc2cc(F)cc(F)c2)CCN1C(=O)c1ccc(NS(=O)(=O)c2cccc3cccnc23)cc1 [Compound 119, (R)—N-(4-(4-(3,5-difluorobenzyl)-2-methylpiperazine-1-carbonyl)phenyl)quinoline-8-sulfonamide] | < 100 nM |
| C[C@@H]1CN(Cc2cc(F)c(F)cc2F)CCN1C(=O)c1ccc(NS(=O)(=O)c2cccc3cccnc23)cc1 [Compound 120, (R)—N-(4-(2-methyl-4-(2,4,5-trifluorobenzyl)piperazine-1-carbonyl)phenyl)quinoline-8-sulfonamide] | < 100 nM |
| C[C@@H]1CN(C(=O)OCCC2CCCCC2)CCN1C(=O)c1ccc(NS(=O)(=O)c2cccc3cccnc23)cc1 [Compound 121, (R)-2-Cyclohexylethyl 3-methyl-4-(4-(quinoline-8-sulfonamido)benzoyl)piperazine-1-carboxylate] | 100 to 500 nM |
| C[C@@H]1CN(C(=O)OCCC2CCCC2)CCN1C(=O)c1ccc(NS(=O)(=O)c2cccc3cccnc23)cc1 [Compound 122, (R)-2-Cyclopentylethyl-3-methyl-4-(4-(quinoline-8-sulfonamido)benzoyl)piperazine-1-carboxylate] | < 100 nM |
| C[C@@H]1CN(C(=O)OC2CCCCC2)CCN1C(=O)c1ccc(NS(=O)(=O)c2cccc3cccnc23)cc1 [Compound 123, (R)-Cyclohexyl 3-methyl-4-(4-(quinoline-8-sulfonamido)benzoyl)piperazine-1-carboxylate] | < 100 nM |
| C[C@@H]1CN(C(=O)OC2CCOCC2)CCN1C(=O)c1ccc(NS(=O)(=O)c2cccc3cccnc23)cc1 [Compound 124, (R)-Tetrahydro-2H-pyran-4-yl-3-methyl-4-(4-(quinoline-8-sulfonamido)benzoyl)piperazine-1-carboxylate] | 100 to 500 nM |
| C[C@@H]1CN(Cc2ccc(Cl)c(F)c2)CCN1C(=O)c1ccc(NS(=O)(=O)c2cccc3cccnc23)cc1 [Compound 125, (R)—N-(4-(4-(4-chloro-3-fluorobenzyl)-2-methylpiperazine-1-carbonyl)phenyl)quinoline-8-sulfonamide] | < 100 nM |
| C[C@@H]1CN(C(=O)O[C@@H]2CCOC2)CCN1C(=O)c1ccc(NS(=O)(=O)c2cccc3cccnc23)cc1 [Compound 126, (R)—((R)-tetrahydrofuran-3-yl)-3-methyl-4-(4-(quinoline-8-sulfonamido)benzoyl)piperazine-1-carboxylate] | 100 to 500 nM |
| C[C@@H]1CN(C(=O)O[C@@H]2CCCOC2)CCN1C(=O)c1ccc(NS(=O)(=O)c2cccc3cccnc23)cc1 [Compound 127, (R)—((R)-tetrahydro-21′-pyran-3-yl)-3-methyl-4-(4-(quinoline-8-sulfonamido)benzoyl)piperazine-1-carboxylate] | 100 to 500 nM |
| C[C@@H]1CN(C(=O)OCC2CCCO2)CCN1C(=O)c1ccc(NS(=O)(=O)c2cccc3cccnc23)cc1 (stereo partly drawn) [Compound 128, (3R)-(Tetrahydrofuran-2-yl)methyl3-methyl-4-(4-(quinoline-8-sulfonamido)benzoyl)piperazine-1-carboxylate] | < 100 nM |
| COc1cccc(CN2CCN(C(=O)c3ccc(NS(=O)(=O)c4cccc5cccnc45)cc3)[C@H](C)C2)c1OC [Compound 130, (R)—N-(4-(4-(2,3-dimethoxybenzyl)-2-methylpiperazine-1-carbonyl)phenyl)quinoline-8-sulfonamide] | < 100 nM |
| C[C@@H]1CN(Cc2ccc(F)cc2)CCN1C(=O)c1ccc(NS(=O)(=O)c2cccc3cccnc23)cc1 [Compound 131, (R)—N-(4-(4-(4-fluorobenzyl)-2-methylpiperazine-1-carbonyl)phenyl)quinoline-8-sulfonamide] | < 100 nM |
| C[C@@H]1CN(Cc2c(F)ccc(F)c2F)CCN1C(=O)c1ccc(NS(=O)(=O)c2cccc3cccnc23)cc1 [Compound 132, (R)—N-(4-(2-methyl-4-(2,3,6-trifluorobenzyl)piperazine-1-carbonyl)phenyl)quinoline-8-sulfonamide] | < 100 nM |
| CC(c1ccc(F)cc1)N1CCN(C(=O)c2ccc(NS(=O)(=O)c3cccc4cccnc34)cc2)[C@H](C)C1 (stereo partly drawn) [Compound 133, N-(4-((2R)-4-(1-(4-fluorophenyl)ethyl)-2-methylpiperazine-1-carbonyl)phenyl)quinoline-8-sulfonamide] | < 100 nM |
| CC[C@H]1CN(Cc2ccc(F)cc2)CCN1C(=O)c1ccc(NS(=O)(=O)c2cccc3cccnc23)cc1 [Compound 134, (S)—N-(4-(2-ethyl-4-(4-fluorobenzyl)piperazine-1-carbonyl)phenyl)quinoline-8-sulfonamide] | 100 to 500 nM |
